The source of these data is patent US20060211676A1, “Crystalline anhydrous cefdinir and crystalline cefdinir hydrates” (priority 2004, published 2006).

This data set can be described thus: Dynamic Moisture Sorption/Desorption Gravimetric (DMSG) analysis. In kind it is physicochemical. The settings on record: relative humidity from 50% to 90%. On the procedure: Dynamic Moisture Sorption/Desorption Gravimetric (DMSG) analysis was performed for the cefdinir lower hydrates. A vacuum moisture balance (MB 300G, VTI Corporation) was used to study the moisture sorption and desoprtion. Samples were dried at 50° C. under vacuum to constant weight. Relative humidity was increased to 90% in 10% increments. If the sample weight remained unchanged (i.e. changed by less than about 3 mg/15 min), the moisture content was recorded. The balance was calibrated before the experiment and the accuracy of the relative humidity measurement was verified with polyvinylpyrrolidone K90. […] Sharp steps, for example with relative humidity changes from 40% to 50%, occur when the crystal undergoes a phase change (i.e. a crystalline structure change). […] Increases in the relative humidity from 10% to almost 40%, results in the formation of crystalline iso-structural hydrates. The cefdinir iso-structural hydrates varied but maintained the same crystalline structure and PXRD patterns (FIG. 6). An increase in the relative humidity from 40% to 50% caused a crystalline structure change, and further increase of relative humidity from 50% to 90% caused cefdinir trihemihydrate (having a water content of about 14%) to form. […] The weight changes are expressed by percentage of water content and by the calculated molar content of water.

In the case of `C=CC1=C(C(=O)O)N2C(=O)[C@@H](NC(=O)/C(=N\O)c3csc(N)n3)[C@H]2SC1.C=CC1=C(C(=O)O)N2C(=O)[C@@H](NC(=O)/C(=N\O)c3csc(N)n3)[C@H]2SC1.O.O.O.O.O.O.O` [cefdinir trihemihydrate, crystalline(6R-(6α,7β(Z)))-7-(((2-amino-1,3-thiazol-4-yl)(hydroxyimino)acetyl)amino)-3-ethenyl-8-oxo-5-thia-1-azabicyclo[4.2.0]oct-2-ene-2-carboxylic acid.3.5H2O], the water content result is on record as “about 14%”.
